According to patent publication US6737383B1, “Herbicidal oxadiazolidines” (priority 1999, dated 2004):

Experiments:
wheat = assay: Test B pre/postemergence wheat; assay type: in vivo, Triticum aestivum
Procedure, shortened: (§1)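 Test chemicals in a non-phytotoxic solvent mixture with surfactant were sprayed preemergence onto planted seeds and postemergence onto plants 2 to 18 cm tall (1- to 4-leaf stage). After twelve to sixteen days in a greenhouse, injury was visually rated against untreated controls from 0 (no effect) to 10 (complete control).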

corn = assay: Test B pre/postemergence corn; assay type: in vivo, Zea mays
Procedure, shortened: as §1

giant foxtail = assay: Test B pre/postemergence giant foxtail; assay type: in vivo, Setaria faberii
Procedure, shortened: as §1

surinam grass = assay: Test B pre/postemergence surinam grass; assay type: in vivo, Brachiaria decumbens
Procedure, shortened: as §1

bedstraw = assay: Test B pre/postemergence bedstraw; assay type: in vivo, Galium aparine
Procedure, shortened: as §1

wild oat = assay: Test B pre/postemergence wild oat; assay type: in vivo, Avena fatua
Procedure, shortened: as §1

crabgrass = assay: Test B pre/postemergence crabgrass; assay type: in vivo, Digitaria sanguinalis
Procedure, shortened: as §1

smallflower flatsedge = assay: Test B flood test smallflower flatsedge; assay type: in vivo, Cyperus difformis
Procedure, shortened: (§2)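 Plants were grown to the 2-leaf stage before treatment with test chemical, then held in a greenhouse for twelve to sixteen days. Injury was visually rated against untreated controls on a 0–10 scale, where 0 is no effect and 10 is complete control.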

blackgrass = assay: Test B pre/postemergence blackgrass; assay type: in vivo, Alopecurus myosuroides
Procedure, shortened: as §1

rice = assay: Test B flood test rice; assay type: in vivo, Oryza sativa
Procedure, shortened: as §2

duck salad = assay: Test B flood test duck salad; assay type: in vivo, Heteranthera limosa
Procedure, shortened: as §2

morningglory = assay: Test B pre/postemergence morningglory; assay type: in vivo, Ipomoea hederacea
Procedure, shortened: as §1

velvetleaf = assay: Test B pre/postemergence velvetleaf; assay type: in vivo, Abutilon theophrasti
Procedure, shortened: as §1

cocklebur = assay: Test B pre/postemergence cocklebur; assay type: in vivo, Xanthium strumarium
Procedure, shortened: as §1

bamyardgrass = assay: Test B flood test barnyardgrass; assay type: in vivo, Echinochloa crus-galli
Procedure, shortened: as §2

purple nutsedge = assay: Test B pre/postemergence purple nutsedge; assay type: in vivo, Cyperus rotundus
Procedure, shortened: as §1

soybean = assay: Test B pre/postemergence soybean; assay type: in vivo, Glycine max
Procedure, shortened: as §1

[1] = Preemergence, Rate 31 g/ha, visual rating, scale 0 to 10 (0 no effect, 10 complete control)
[2] = Preemergence, Rate 62 g/ha, scale of 0 to 10 where 0 is no effect and 10 is complete control
[3] = Preemergence, Rate 250 g/ha, scale of 0 to 10 where 0 is no effect and 10 is complete control
[4] = Rate 62 g/ha, Postemergence, scale 0 to 10 (0 no effect, 10 complete control)
[5] = Rate 125 g/ha, Postemergence, scale of 0 to 10 where 0 is no effect and 10 is complete control
[6] = Rate 125 g/ha, Preemergence, scale of 0 to 10 where 0 is no effect and 10 is complete control
[7] = Rate 250 g/ha, Postemergence, scale of 0 to 10 where 0 is no effect and 10 is complete control
[8] = Rate 31 g/ha, Postemergence, scale 0 to 10
[9] = Rate 31 g/ha, Pre-emergence section (flood test species), scale 0 to 10
[10] = Rate 62 g/ha, headed Pre-emergence (flood test species), scale 0 to 10 (0 no effect, 10 complete control)
[11] = Rate 125 g/ha, Pre-emergence, flood test species, scale 0 to 10 where 0 is no effect and 10 is complete control
[12] = Rate 250 g/ha, Pre-emergence, flood-test species, scale 0 to 10, 0 is no effect, 10 is complete control

CC(C)=CCn1c(=O)on(C(=O)N(c2ccc(F)cc2)C(C)C)c1=O [Compound 288]
Wheat plant response rating (wheat; [1]): 0 | Wheat plant response rating (wheat; [2]): 0 | Wheat plant response rating (wheat; [3]): 2 | Wheat plant response rating (wheat; [4]): 0 | Wheat plant response rating (wheat; [5]): 0 | Wheat plant response rating (wheat; [6]): 0 | Plant response rating, Wheat (wheat; [7]): 0 | Corn plant response rating (corn; [1]): 0 | Corn plant response rating (corn; [2]): 0 | Corn plant response rating (corn; [3]): 0 | Corn plant response rating (corn; [8]): 0 | Corn plant response rating (corn; [4]): 0 | Corn plant response rating (corn; [5]): 0 | Corn plant response rating (corn; [6]): 0 | Plant response rating, Corn (corn; [7]): 0 | Giant foxtail plant response rating (giant foxtail; [1]): 0 | Giant foxtail plant response rating (giant foxtail; [2]): 5 | Giant foxtail plant response rating (giant foxtail; [3]): 10 | Giant foxtail plant response rating (giant foxtail; [8]): 0 | Giant foxtail plant response rating (giant foxtail; [4]): 0 | Giant foxtail plant response rating (giant foxtail; [5]): 0 | Giant foxtail plant response rating (giant foxtail; [6]): 9 | Plant response rating, Giant foxtail (giant foxtail; [7]): 0 | B. signalgrass plant response rating (surinam grass; [1]): 0 | B. signalgrass plant response rating (surinam grass; [2]): 0 | B. signalgrass plant response rating (surinam grass; [3]): 6 | B. signalgrass plant response rating (surinam grass; [8]): 0 | B. signalgrass plant response rating (surinam grass; [4]): 0 | B. signalgrass plant response rating (surinam grass; [5]): 0 | B. signalgrass plant response rating (surinam grass; [6]): 4 | Plant response rating, B. signalgrass (surinam grass; [7]): 0 | Bedstraw plant response rating (bedstraw; [1]): 0 | Bedstraw plant response rating (bedstraw; [2]): 0 | Bedstraw plant response rating (bedstraw; [3]): 10 | Bedstraw plant response rating (bedstraw; [8]): 0 | Bedstraw plant response rating (bedstraw; [4]): 0 | Bedstraw plant response rating (bedstraw; [5]): 0 | Bedstraw plant response rating (bedstraw; [6]): 2 | Plant response rating, Bedstraw (bedstraw; [7]): 0 | Wild oats plant response rating (wild oat; [1]): 0 | Wild oats plant response rating (wild oat; [2]): 0 | Wild oats plant response rating (wild oat; [3]): 5 | Wild oats plant response rating (wild oat; [4]): 0 | Wild oats plant response rating (wild oat; [5]): 0 | Plant response rating, Wild oats (wild oat; [7]): 0 | Crabgrass plant response rating (crabgrass; [1]): 0 | Crabgrass plant response rating (crabgrass; [2]): 1 | Crabgrass plant response rating (crabgrass; [3]): 10 | Crabgrass plant response rating (crabgrass; [8]): 0 | Crabgrass plant response rating (crabgrass; [4]): 0 | Crabgrass plant response rating (crabgrass; [5]): 0 | Crabgrass plant response rating (crabgrass; [6]): 2 | Plant response rating, Crabgrass (crabgrass; [7]): 3 | S. Flatsedge plant response rating (smallflower flatsedge; [9]): 0 | S. Flatsedge plant response rating (smallflower flatsedge; [10]): 0 | S. Flatsedge plant response rating (smallflower flatsedge; [11]): 0 | S. Flatsedge plant response rating (smallflower flatsedge; [12]): 0 | Blackgrass plant response rating (blackgrass; [1]): 0 | Blackgrass plant response rating (blackgrass; [2]): 0 | Blackgrass plant response rating (blackgrass; [3]): 6 | Blackgrass plant response rating (blackgrass; [8]): 0 | Blackgrass plant response rating (blackgrass; [4]): 0 | Blackgrass plant response rating (blackgrass; [5]): 0 | Blackgrass plant response rating (blackgrass; [6]): 2 | Plant response rating, Blackgrass (blackgrass; [7]): 2 | Rice plant response rating (rice; [9]): 0 | Rice plant response rating (rice; [10]): 0 | Rice plant response rating (rice; [11]): 0 | Rice plant response rating (rice; [12]): 0 | Ducksalad plant response rating (duck salad; [9]): 0 | Ducksalad plant response rating (duck salad; [10]): 0 | Ducksalad plant response rating (duck salad; [11]): 0 | Ducksalad plant response rating (duck salad; [12]): 0 | Morningglory plant response rating (morningglory; [1]): 0 | Morningglory plant response rating (morningglory; [2]): 0 | Morningglory plant response rating (morningglory; [3]): 0 | Morningglory plant response rating (morningglory; [8]): 3 | Morningglory plant response rating (morningglory; [4]): 7 | Morningglory plant response rating (morningglory; [5]): 8 | Morningglory plant response rating (morningglory; [6]): 0 | Plant response rating, Morningglory (morningglory; [7]): 8 | Velvetleaf plant response rating (velvetleaf; [1]): 0 | Velvetleaf plant response rating (velvetleaf; [2]): 0 | Velvetleaf plant response rating (velvetleaf; [3]): 3 | Velvetleaf plant response rating (velvetleaf; [4]): 0 | Velvetleaf plant response rating (velvetleaf; [5]): 0 | Velvetleaf plant response rating (velvetleaf; [6]): 0 | Plant response rating, Velvetleaf (velvetleaf; [7]): 1 | Cocklebur plant response rating (cocklebur; [1]): 0 | Cocklebur plant response rating (cocklebur; [2]): 0 | Cocklebur plant response rating (cocklebur; [3]): 0 | Cocklebur plant response rating (cocklebur; [8]): 0 | Cocklebur plant response rating (cocklebur; [4]): 0 | Cocklebur plant response rating (cocklebur; [5]): 0 | Cocklebur plant response rating (cocklebur; [6]): 0 | Plant response rating, Cocklebur (cocklebur; [7]): 1 | Barnyardgrass plant response rating (bamyardgrass; [9]): 0 | Barnyardgrass plant response rating (bamyardgrass; [10]): 0 | Barnyardgrass plant response rating (bamyardgrass; [11]): 4 | Barnyardgrass plant response rating (bamyardgrass; [12]): 9 | Nutsedge plant response rating (purple nutsedge; [1]): 0 | Nutsedge plant response rating (purple nutsedge; [2]): 0 | Nutsedge plant response rating (purple nutsedge; [3]): 0 | Nutsedge plant response rating (purple nutsedge; [8]): 0 | Nutsedge plant response rating (purple nutsedge; [4]): 0 | Nutsedge plant response rating (purple nutsedge; [5]): 0 | Nutsedge plant response rating (purple nutsedge; [6]): 0 | Plant response rating, Nutsedge (purple nutsedge; [7]): 0 | Soybean plant response rating (soybean; [1]): 0 | Soybean plant response rating (soybean; [2]): 0 | Soybean plant response rating (soybean; [3]): 0 | Soybean plant response rating (soybean; [4]): 0 | Soybean plant response rating (soybean; [5]): 2 | Soybean plant response rating (soybean; [6]): 0 | Plant response rating, Soybean (soybean; [7]): 2
